From PubChem BioAssay (NCI)
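At the GI50, growth is halved. The concentration for full growth arrest is given as TGI.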

Assays:
Experiment in all cases: DTP human tumour cell line panel, 384-well format
NCI-H460 NSCLC = tested on: NCI-H460 NSCLC
MCF7 breast = tested on: MCF7 breast
SF-295 CNS = tested on: SF-295 CNS
NCI/ADR-RES ovarian = tested on: NCI/ADR-RES ovarian
KM12 colon = tested on: KM12 colon
SNB-19 CNS = tested on: SNB-19 CNS
SF-539 CNS = tested on: SF-539 CNS
MDA-MB-435 melanoma = tested on: MDA-MB-435 melanoma
LOX IMVI melanoma = tested on: LOX IMVI melanoma
NCI-H322M lung = tested on: NCI-H322M lung
EKVX NSCLC = tested on: EKVX NSCLC
HL-60(TB) leukemia = tested on: HL-60(TB) leukemia
UACC-257 melanoma = tested on: UACC-257 melanoma

Row | Structure (SMILES) | GI50 (NCI-H460 NSCLC) [µM] | TGI (NCI-H460 NSCLC) [µM] | GI50 (MCF7 breast) [µM] | TGI (MCF7 breast) [µM] | GI50 (SF-295 CNS) [µM] | TGI (SF-295 CNS) [µM] | GI50 (NCI/ADR-RES ovarian) [µM] | TGI (NCI/ADR-RES ovarian) [µM] | GI50 (KM12 colon) [µM] | TGI (KM12 colon) [µM] | GI50 (SNB-19 CNS) [µM] | TGI (SNB-19 CNS) [µM] | GI50 (SF-539 CNS) [µM] | TGI (SF-539 CNS) [µM] | GI50 (MDA-MB-435 melanoma) [µM] | TGI (MDA-MB-435 melanoma) [µM] | GI50 (LOX IMVI melanoma) [µM] | TGI (LOX IMVI melanoma) [µM] | GI50 (NCI-H322M lung) [µM] | TGI (NCI-H322M lung) [µM] | also measured
1 | Cc1ccc(-c2nc(N)nc3c2nnn3Cc2cccc(CO[C@H]3CCOC3)n2)o1 | > 100 | > 100 | > 100 | > 100 | > 100 | > 100 | > 77.1 | > 100 | > 100 | > 100 | > 100 | > 100 | > 100 | > 100 | > 100 | > 100 | > 100 | > 100 | > 100 | > 100 | GI50 (EKVX NSCLC): > 100 µM; TGI (EKVX NSCLC): > 100 µM; GI50 (HL-60(TB) leukemia): > 64.3 µM; TGI (HL-60(TB) leukemia): > 100 µM; GI50 (UACC-257 melanoma): > 100 µM; TGI (UACC-257 melanoma): > 100 µM
2 | Cc1cc(-c2nnc(N)nc2-c2ccc(F)cc2)cc(Cl)n1 | > 89.7 | > 100 | > 100 | > 100 | > 84.4 | > 100 | 25.3 | 86.3 | > 87.1 | > 100 | > 100 | > 100 | > 100 | > 100 | > 100 | > 100 | > 100 | > 100 | > 100 | > 100 | GI50 (EKVX NSCLC): 52.9 µM; TGI (EKVX NSCLC): > 100 µM; GI50 (HL-60(TB) leukemia): 36.5 µM; TGI (HL-60(TB) leukemia): > 100 µM; GI50 (UACC-257 melanoma): 66.5 µM; TGI (UACC-257 melanoma): > 100 µM
